Data: EP4389827A1, “AMINOGLYCOSIDE-LINKED PHOTOSENSITIZERS” (Centre National de la Recherche Scientifique, priority 2022, dated 2024)
“And” between values parts separate entries of the source, which are not always exact repeats. Equal entries are not always repeated. Where two headings read alike, the source gives them in different places.

How the values were obtained:
A. baumannii DSM30011 [1] = assay: Minimal inhibitory concentration (EUCAST), with or without 660 nm irradiation; type: cell-based, Acinetobacter baumannii; conditions: for MIC: Acinetobacter baumannii, DSM30011, light or radiation study, 18 h, read-out: MIC
Description: (§1) Acinetobacter baumannii DSM30011, Bacillus subtilis 168, Pseudomonas aeruginosa PA14, P. aeruginosa PAO1, Staphylococcus aureus Mu50, S. aureus Newman and S. aureus USA300 were all grown in MHB-CA at 37°C with an agitation of 180 rpm. Candida albicans SC5314 was grown in yeast extract peptone dextrose broth at 35°C with an agitation of 180 rpm.
(§2) Minimal inhibitory concentrations (MICs) for selected bacteria were investigated according to the EUCAST guidelines. Serial dilutions of the compounds, photosensitizers and aminoglycosides were made in MHB-CA in 384-well plates. Stationary-phase cells were diluted in MHB-CA to have a final concentration of 5.5 × 10^5 CFU/mL. Samples were incubated in the dark for 20 minutes at 37°C and either irradiated at 660 nm for 30 minutes with a LED device or kept in the dark. Irradiated samples received a total of 168 mJ/mm^2. Plates were then incubated at 37°C for 18 hours and MICs were evaluated visually. Triplicates were done and the synergy, or fractional inhibitory concentration (FIC), was calculated according to Doern et al., 2014: FIC = (MIC of AB)/(MIC of A) + (MIC of AB)/(MIC of B) [formula]

P. aeruginosa PA14 [2] = assay: as above; type: cell-based, Pseudomonas aeruginosa; conditions: for MIC: read-out: MIC
Description: as §1, §2

P. aeruginosa PAO1 [3] = assay: as above; type: cell-based, Pseudomonas aeruginosa; conditions: for MIC: Pseudomonas aeruginosa, PAO1, light or radiation study, 18 h, read-out: MIC
Description: as §1, §2

S. aureus Mu50 [4] = assay: as above; type: cell-based; conditions: Staphylococcus aureus, MU50, light or radiation study, 18 h, read-out: MIC
Description: as §1, §2

S. aureus USA300 [5] = assay: as above; type: cell-based; conditions: Staphylococcus aureus, USA300, light or radiation study, 18 h
Description: as §1, §2

S. aureus Newman [6] = assay: as above; type: cell-based, Staphylococcus aureus; conditions: for MIC: Staphylococcus aureus, NEWMAN, light or radiation study, 18 h, read-out: MIC
Description: as §1, §2

S. aureus Mu50 [7] = assay: Antibacterial photodynamic therapy on planktonic cells (CFU count); type: cell-based, Staphylococcus aureus; conditions: for log reduction at 10 µM: Staphylococcus aureus, MU50, light or radiation study, 0.5 h, irradiated 660 nm 30 minutes, 5 J/mm^2, read-out: Mean CFU drop (survival dropped by)
Description: as §1
(§3) Cells were brought to stationary phase by incubating them in MHB-CA for at least 18 hours at 37°C with 180 rpm and diluted to an optical density of 1.0 just before the experiment. Cells were incubated for 20 minutes with either the compounds, photosensitizers alone, or aminoglycosides alone. Unless stated otherwise, a concentration of 10 µM was used for all experiments and samples were irradiated for 30 minutes at 660 nm with the Solis-660C lamp from ThorLabs, receiving a total of 5 J/mm^2. After illumination, cells were washed with phosphate-buffered saline (PBS) 1X, serially diluted and plated on Mueller-Hinton agar. The next day, colony forming units (CFUs) were counted.

S. aureus Newman [8] = assay: as above; type: cell-based, Staphylococcus aureus; conditions: Staphylococcus aureus, NEWMAN, light or radiation study, 0.5 h, 10 µM, irradiated 660 nm 30 minutes, 5 J/mm^2, read-out: Mean CFU drop (survival dropped by)
Description: as §1, §3

S. aureus USA300 [9] = assay: as above; type: cell-based; conditions: Staphylococcus aureus, USA300, light or radiation study, 0.5 h, irradiated 660 nm 30 minutes, 5 J/mm^2, read-out: Mean CFU drop (survival dropped by)
Description: as §1, §3

A. baumannii DSM30011 [10] = assay: Antibacterial photodynamic therapy on biofilm cells; type: cell-based, Acinetobacter baumannii
Source text: (§4) Compounds Neo-Ce6 and Tobra-Ce6 caused strong drop in survival for biofilms of A. baumannii […], P. aeruginosa species and S. aureus Mu50. […] Tobra-Ce6 had its strongest effect on A. baumannii DSM30011 with more than 4 log10 CFU/mL drop in survival and a drop of 1.7 log10 CFU/mL in P. aeruginosa PA14. Table 2: aPDT results for biofilm cells expressed in drop in the log10 CFU/mL compared to controls.

P. aeruginosa PA14 [11] = assay: as above; type: cell-based, Pseudomonas aeruginosa
Source text: as §4

P. aeruginosa PAO1 [12] = assay: as above; type: cell-based, Pseudomonas aeruginosa
Source text: as §4

S. aureus Mu50 [13] = assay: as above; type: cell-based, Staphylococcus aureus
Source text: as §4

S. aureus Newman [14] = assay: as above; type: cell-based, Staphylococcus aureus
Source text: as §4

S. aureus USA300 [15] = assay: as above; type: cell-based, Staphylococcus aureus
Source text: as §4

[16] = system: S. aureus USA300 persister cells; assay: Antibacterial photodynamic therapy on persister cells; type: cell-based, Staphylococcus aureus; conditions: persister cells (6 hours, 2 mM neomycin); aPDT at 10 µM, 5 J/mm^2 (Figure 6a)
Description: Persister plateau and AG concentration varied from one species to another. In S. aureus USA300, a stable plateau was obtained following 6 hours of incubation with 2 mM of neomycin. […] This control is crucial to make sure that a persister state has been achieved. […] As there are no significant differences between irradiated and non-irradiated samples, however, the production of singlet oxygen may not be the factor leading to cell death. In S. aureus Newman, cells were treated for 24 hours with 1 mM of neomycin. […] Although this synergy does exist, like in S. aureus USA300, there is no significant difference in survival for irradiated and non-irradiated samples, except for Ce6.

[17] = with (+) irradiation, 660 nm 30 minutes, 168 mJ/mm^2
[18] = conjugate with irradiation, from FIC

Compound | MIC (A. baumannii DSM30011 [1]; [17]) | MIC (A. baumannii DSM30011 [1]; without (-) irradiation) | MIC (P. aeruginosa PAO1 [3]; [17]) | MIC (P. aeruginosa PAO1 [3]; without (-) irradiation) | MIC (S. aureus Mu50 [4]; [17]) | MIC (S. aureus Mu50 [4]; without (-) irradiation) | MIC (S. aureus USA300 [5]; [17]) | MIC (S. aureus USA300 [5]; without (-) irradiation) | MIC (S. aureus Newman [6]; [17]) | MIC (S. aureus Newman [6]; without (-) irradiation) | log reduction at 10 µM (S. aureus Mu50 [7]) | log reduction at 10 µM (S. aureus Newman [8]) | log reduction at 10 µM (S. aureus USA300 [9]) | drop in the log10 CFU/mL compared to controls (A. baumannii DSM30011 [10]; - irradiation) | drop in the log10 CFU/mL compared to controls (P. aeruginosa PA14 [11]; + irradiation) | drop in the log10 CFU/mL compared to controls (P. aeruginosa PA14 [11]; - irradiation) | drop in the log10 CFU/mL compared to controls (P. aeruginosa PAO1 [12]; + irradiation) | drop in the log10 CFU/mL compared to controls (P. aeruginosa PAO1 [12]; - irradiation) | drop in the log10 CFU/mL compared to controls (S. aureus Mu50 [13]; + irradiation) | drop in the log10 CFU/mL compared to controls (S. aureus Mu50 [13]; - irradiation) | other results
C=Cc1c(C)c2cc3nc(c(CC(=O)O)c4[nH]c(cc5nc(cc1[nH]2)C(C)=C5CC)c(C)c4C(=O)O)[C@@H](CCC(=O)NC[C@H]1O[C@H](O[C@@H]2[C@@H](O)[C@H](O[C@H]4O[C@H](CN)[C@@H](O)C[C@H]4N)[C@@H](N)C[C@H]2N)[C@H](O)[C@@H](N)[C@@H]1O)[C@@H]3C [Tobra-Ce6] | 2 to 4 µM | > 16 µM | 4 to 8 µM | > 16 µM | 2 to 4 µM | 16 µM | 2 to 4 µM | > 16 µM | 2 µM | > 16 µM | 5.4 | ~3.9 | 3.5 | 1.58 log10 CFU/mL | 1.7 log10 CFU/mL and 1.69 log10 CFU/mL | 0.85 log10 CFU/mL | 1.25 log10 CFU/mL | 0.79 log10 CFU/mL | 1.32 log10 CFU/mL | 0.37 log10 CFU/mL | Synergy (A. baumannii DSM30011 [1]; [18]): +; MIC (P. aeruginosa PA14 [2]; Pseudomonas aeruginosa, PA14, light or radiation study, 18 h, with (+) irradiation, 660 nm 30 minutes, 168 mJ/mm^2): > 16 µM; Synergy (P. aeruginosa PA14 [2]; [18]): -; MIC (P. aeruginosa PA14 [2]; without (-) irradiation): > 16 µM; Synergy (P. aeruginosa PAO1 [3]; [18]): -; Synergy (S. aureus Newman [6]; [18]): +; survival (in words) (S. aureus Mu50 [7]; irradiated samples, 5 J/mm^2 (Figure 3a)): high bacterial death; drop in the log10 CFU/mL compared to controls (S. aureus Newman [14]; + irradiation): 1.36 log10 CFU/mL; drop in the log10 CFU/mL compared to controls (S. aureus Newman [14]; - irradiation): 0.49 log10 CFU/mL; drop in the log10 CFU/mL compared to controls (S. aureus USA300 [15]; + irradiation): 0.14 log10 CFU/mL; drop in the log10 CFU/mL compared to controls (S. aureus USA300 [15]; - irradiation): 0.28 log10 CFU/mL; persister cell survival (in words) [16]: close to or under the detection limit
C=Cc1c(C)c2cc3nc(c(CC(=O)O)c4[nH]c(cc5nc(cc1[nH]2)C(C)=C5CC)c(C)c4C(=O)O)[C@@H](CCC(=O)O)[C@@H]3C [Ce6, chlorin e6] | > 64 µM | > 64 µM | > 64 µM | > 64 µM | 4 µM | > 64 µM | 16 to 32 µM | > 64 µM | 64 µM | > 64 µM | 3.2 | ~3.6 | 3.2 | 0.45 log10 CFU/mL | 0.60 log10 CFU/mL | 0.29 log10 CFU/mL | 0.25 log10 CFU/mL | 0.28 log10 CFU/mL | 0.36 log10 CFU/mL | -0.005 log10 CFU/mL | MIC (P. aeruginosa PA14 [2]; Pseudomonas aeruginosa, PA14, light or radiation study, 18 h, without (-) irradiation): > 64 µM; MIC (P. aeruginosa PA14 [2]; [17]): > 64 µM; drop in the log10 CFU/mL compared to controls (A. baumannii DSM30011 [10]; + irradiation): 0.71 log10 CFU/mL; drop in the log10 CFU/mL compared to controls (S. aureus Newman [14]; + irradiation): 0.57 log10 CFU/mL; drop in the log10 CFU/mL compared to controls (S. aureus Newman [14]; - irradiation): -0.19 log10 CFU/mL; drop in the log10 CFU/mL compared to controls (S. aureus USA300 [15]; + irradiation): 0.73 log10 CFU/mL; drop in the log10 CFU/mL compared to controls (S. aureus USA300 [15]; - irradiation): 0.33 log10 CFU/mL; persister cell survival (in words) [16]: some killing
